Experimental data published in paper PMC9558053, “Development of a novel high-throughput screen for the identification of new inhibitors of protein S-acylation” (The Journal of Biological Chemistry, 2022).

Biological target: T1, human zDHHC2 (Homo sapiens, UniProt Q9UIJ5)
T1 construct: expressed in transfected cells; host or cells: HEK293T
T1 sequence (Q9UIJ5 1-367): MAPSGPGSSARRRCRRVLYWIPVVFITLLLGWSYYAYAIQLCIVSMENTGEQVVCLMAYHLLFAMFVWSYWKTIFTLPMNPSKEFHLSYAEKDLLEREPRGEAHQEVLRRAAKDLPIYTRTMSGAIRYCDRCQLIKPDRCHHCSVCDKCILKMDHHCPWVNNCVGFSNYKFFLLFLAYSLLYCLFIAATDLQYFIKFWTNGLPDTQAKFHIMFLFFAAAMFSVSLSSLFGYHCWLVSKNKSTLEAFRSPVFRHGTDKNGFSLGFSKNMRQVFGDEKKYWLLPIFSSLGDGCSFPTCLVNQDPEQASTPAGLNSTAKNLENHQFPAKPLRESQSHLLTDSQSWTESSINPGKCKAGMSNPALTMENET
Test: TR-FRET high-throughput assay of zDHHC2 autoacylation (HA-zDHHC2 lipoparticles, NBD-palmitoyl-CoA)
Assay type: biochemical
Settings: Ono; for inhibition at 4.2 µM: compound 4.2 μM; for inhibition at 12.5 µM: compound 12.5 μM
Source text: S-acylation is a two-step process involving enzyme “autoacylation” (at the cysteine of the DHHC motif) followed by transfer of the acyl chain to a substrate protein. To identify potential inhibitors of S-acylation, we developed an assay measuring enzyme autoacylation and focused on zDHHC2 given its prominent role in synaptic function in the nervous system (Fig. 1A). The assay monitors time-resolved FRET (TR-FRET) between the energy donor terbium cryptate (attached to an antibody recognizing hemagglutinin [HA]-tagged zDHHC2) and the acceptor fluorophore nitrobenzoxadiazole (NBD) (attached to the lipid group). The excitation of the energy donor terbium cryptate (360 nm) followed by its emission at 480 nm results in energy transfer to the acceptor NBD and emission at 539 nm. Enzyme autoacylation by NBD-conjugated palmitoyl-CoA increases the proximity of the terbium cryptate and NBD, leading to an increase in FRET signal. The resulting interaction is quantified as the ratiometric measurement of NBD (539 nm) over terbium (480 nm) emission and constitutes the TR-FRET signal.
Figure 1 High-throughput screen (HTS) for the discovery of chemical compounds modulating human zDHHC2 autoacylation activity: TR-FRET-based assay.A, experimental design of the HTS. HA-tagged zDHHC2 enzyme expressed at the surface of lipoparticles was incubated for 15 min at room temperature (RT) with NBD-tagged palmitoyl-CoA and an anti-HA antibody coupled to terbium (Tb) cryptate. Autoacylation of zDHHC2 on its catalytic cysteine brings closer the FRET donor Tb cryptate bound to the anti-HA antibody to the NBD fluorophore coupled to the palmitate and triggers FRET that can be followed over time (time-resolved FRET [TR-FRET]). B, TR-FRET was measured with increasing concentrations of NBD-palmitoyl-CoA (NBD-C16:0-CoA) and either WT zDHHC2 (left panel) or catalytically dead zDHHC2 C157S (right panel) over a period of 35 min. C, experimental conditions of the HTS screen. About 350,000 compounds were incubated individually in 1536-well plates at a concentration of 4.2 μM with zDHHC2 lipoparticles (42 μg/ml stock) for a few minutes before the addition of a mix containing the Tb cryptate–tagged anti-HA antibody (1:200 dilution) and 1 μM of NBD-palmitoyl-CoA (NBD-C16:0-CoA). TR-FRET was measured after a 15 min incubation at room temperature on a Biotek Synergy Neo apparatus. Results are given as a ratio between the FRET signal measured over a background baseline. D, histogram representation of ONO library screen showing the percentage of activity of zDHHC2 (as measured by TR-FRET) in the presence of each compound. The graph represents the number of compounds that are either activating (0 to 100) or inhibiting (0 to −100) zDHHC2 activity. […]

SMILES | inhibition at 4.2 µM [%] | inhibition at 12.5 µM [%]
CCCCCCCOc1ccc(C(=O)Nc2cccc3c2OC(c2nnn[nH]2)CN3)cc1 (stereo not shown) [TTZ-1, N-(2-(1H-Tetrazol-5-yl)-3,4-dihydro-2H-benzo[b][1,4]oxazin-8-yl)-4-(heptyloxy)benzamide] | 32 | 61
O=C(Nc1cccc2c1OC(c1nnn[nH]1)CN2)c1ccc(OCCCCc2ccccc2)cc1 (stereo not shown) [TTZ-2, N-(2-(1H-Tetrazol-5-yl)-3,4-dihydro-2H-benzo[b][1,4]oxazin-8-yl)-4-(4-phenylbutoxy)benzamide] | 45 | 69
